For one assay, the target named is T1, B2 bradykinin receptor (Homo sapiens, UniProt P30411). Also: in other assays of this panel Not Active means under 50% inhibition at 10 µM.
T1 sequence (P30411 whole entry): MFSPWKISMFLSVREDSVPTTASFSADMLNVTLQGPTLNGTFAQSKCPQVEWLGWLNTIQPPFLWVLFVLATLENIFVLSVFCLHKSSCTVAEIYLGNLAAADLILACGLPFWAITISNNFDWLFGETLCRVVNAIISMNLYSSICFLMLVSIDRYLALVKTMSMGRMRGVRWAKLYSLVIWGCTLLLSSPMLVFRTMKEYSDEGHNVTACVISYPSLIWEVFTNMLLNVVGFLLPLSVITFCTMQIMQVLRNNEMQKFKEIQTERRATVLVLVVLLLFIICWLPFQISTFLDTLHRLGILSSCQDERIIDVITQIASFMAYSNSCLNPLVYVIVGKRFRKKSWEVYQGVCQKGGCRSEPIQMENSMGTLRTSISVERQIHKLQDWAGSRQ
It is filed as cell membranes, Membrane. The note with it: chem-1.

The target of assay [1] is Tyrosine-protein kinase Lck (Homo sapiens, UniProt P06239). The experiment in a line: DRUGMATRIX: Protein Tyrosine Kinase, LCK enzyme inhibition (substrate: Poly(Glu:Tyr)). The note with it: Not Active = under 50% inhibition at 10 µM; for IC50: insect cells. Format: cell-based, Insect cells.
Tyrosine-protein kinase Lck, sequence (P06239 whole entry): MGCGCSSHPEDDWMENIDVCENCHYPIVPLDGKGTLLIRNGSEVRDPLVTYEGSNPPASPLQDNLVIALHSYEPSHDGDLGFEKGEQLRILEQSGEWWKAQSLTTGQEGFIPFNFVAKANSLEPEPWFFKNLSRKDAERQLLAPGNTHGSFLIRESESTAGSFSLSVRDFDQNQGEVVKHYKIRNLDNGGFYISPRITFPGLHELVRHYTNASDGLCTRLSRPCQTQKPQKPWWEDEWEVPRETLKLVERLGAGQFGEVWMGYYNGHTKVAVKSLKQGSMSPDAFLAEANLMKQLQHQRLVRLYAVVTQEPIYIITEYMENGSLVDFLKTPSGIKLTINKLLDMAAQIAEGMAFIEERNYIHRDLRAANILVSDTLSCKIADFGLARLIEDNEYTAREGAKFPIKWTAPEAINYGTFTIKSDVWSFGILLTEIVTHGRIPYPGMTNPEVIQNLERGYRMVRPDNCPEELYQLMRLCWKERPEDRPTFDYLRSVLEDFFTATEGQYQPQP
A further assay deals with T2, Interstitial collagenase (Homo sapiens, UniProt P03956).
T2 sequence (P03956 whole entry): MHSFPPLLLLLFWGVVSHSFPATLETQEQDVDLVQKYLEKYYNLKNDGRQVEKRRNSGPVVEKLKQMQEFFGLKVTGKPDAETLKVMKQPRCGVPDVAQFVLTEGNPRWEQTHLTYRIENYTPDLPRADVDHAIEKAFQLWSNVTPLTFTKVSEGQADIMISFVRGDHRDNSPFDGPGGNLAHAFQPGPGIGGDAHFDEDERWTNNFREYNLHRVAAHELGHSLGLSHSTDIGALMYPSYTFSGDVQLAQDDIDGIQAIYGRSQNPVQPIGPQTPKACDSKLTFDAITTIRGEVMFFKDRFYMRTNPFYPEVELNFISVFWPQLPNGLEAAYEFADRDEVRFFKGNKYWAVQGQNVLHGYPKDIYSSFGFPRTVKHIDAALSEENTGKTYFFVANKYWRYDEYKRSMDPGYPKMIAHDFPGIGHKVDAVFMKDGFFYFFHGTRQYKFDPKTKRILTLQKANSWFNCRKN
It is filed as tissue-based, Rheumatoid synovial fibroblasts.

Assay [2] has as its target T3, 5-hydroxytryptamine receptor 2C (Homo sapiens, UniProt P28335).
T3 sequence (P28335 whole entry): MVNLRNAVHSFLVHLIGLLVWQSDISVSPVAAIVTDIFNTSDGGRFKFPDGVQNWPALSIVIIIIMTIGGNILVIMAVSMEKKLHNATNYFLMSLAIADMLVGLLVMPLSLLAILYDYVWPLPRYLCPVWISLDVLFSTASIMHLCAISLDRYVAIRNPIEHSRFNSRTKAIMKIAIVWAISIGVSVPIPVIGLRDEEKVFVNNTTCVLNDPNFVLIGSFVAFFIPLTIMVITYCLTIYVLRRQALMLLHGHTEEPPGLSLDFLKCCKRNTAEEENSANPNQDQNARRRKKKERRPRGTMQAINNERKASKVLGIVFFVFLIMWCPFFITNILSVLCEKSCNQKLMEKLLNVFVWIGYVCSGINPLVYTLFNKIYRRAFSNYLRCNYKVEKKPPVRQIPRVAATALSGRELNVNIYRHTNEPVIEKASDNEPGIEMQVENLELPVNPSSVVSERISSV
The assay is described as follows: DRUGMATRIX: Serotonin (5-Hydroxytryptamine) 5-HT2C radioligand binding (ligand: [3H] Mesulergine). Format: cell membranes, CHO-K1, Membrane. The note with it: cho-k1; Not Active = under 50% inhibition at 10 µM.

The target of assay [3] is T4, Alpha-1D adrenergic receptor (Homo sapiens, UniProt P25100). Also: in other assays of this panel Not Active means under 50% inhibition at 10 µM.
T4 sequence (P25100 whole entry): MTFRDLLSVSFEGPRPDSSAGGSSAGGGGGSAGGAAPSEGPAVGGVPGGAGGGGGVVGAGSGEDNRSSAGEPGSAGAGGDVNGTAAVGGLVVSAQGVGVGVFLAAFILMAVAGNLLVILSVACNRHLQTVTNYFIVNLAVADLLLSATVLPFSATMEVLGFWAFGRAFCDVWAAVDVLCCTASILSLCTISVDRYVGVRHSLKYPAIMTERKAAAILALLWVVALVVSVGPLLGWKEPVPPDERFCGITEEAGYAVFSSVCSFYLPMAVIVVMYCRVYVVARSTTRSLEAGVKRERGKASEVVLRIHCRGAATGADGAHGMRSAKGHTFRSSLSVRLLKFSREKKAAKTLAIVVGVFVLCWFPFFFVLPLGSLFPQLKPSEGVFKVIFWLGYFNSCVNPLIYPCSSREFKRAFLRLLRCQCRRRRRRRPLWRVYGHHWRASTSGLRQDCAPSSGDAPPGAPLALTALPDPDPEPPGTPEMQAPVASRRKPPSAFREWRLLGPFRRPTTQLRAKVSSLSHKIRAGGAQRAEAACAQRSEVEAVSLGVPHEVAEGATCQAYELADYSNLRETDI
It is filed as cell membranes, HEK293, Membrane. The note with it: for IC50: hek293.

A short description of assay [4]: DRUGMATRIX: Glutamate, AMPA radioligand binding (ligand: [3H] AMPA). The note with it: Not Active = under 50% inhibition at 10 µM. It is filed as cell membranes, Rattus norvegicus, Wistar, Cerebral cortex, Membrane.
The next assay deals with T5, Progesterone receptor (Bos taurus, UniProt Q690N0).
T5 sequence (Q690N0 whole entry): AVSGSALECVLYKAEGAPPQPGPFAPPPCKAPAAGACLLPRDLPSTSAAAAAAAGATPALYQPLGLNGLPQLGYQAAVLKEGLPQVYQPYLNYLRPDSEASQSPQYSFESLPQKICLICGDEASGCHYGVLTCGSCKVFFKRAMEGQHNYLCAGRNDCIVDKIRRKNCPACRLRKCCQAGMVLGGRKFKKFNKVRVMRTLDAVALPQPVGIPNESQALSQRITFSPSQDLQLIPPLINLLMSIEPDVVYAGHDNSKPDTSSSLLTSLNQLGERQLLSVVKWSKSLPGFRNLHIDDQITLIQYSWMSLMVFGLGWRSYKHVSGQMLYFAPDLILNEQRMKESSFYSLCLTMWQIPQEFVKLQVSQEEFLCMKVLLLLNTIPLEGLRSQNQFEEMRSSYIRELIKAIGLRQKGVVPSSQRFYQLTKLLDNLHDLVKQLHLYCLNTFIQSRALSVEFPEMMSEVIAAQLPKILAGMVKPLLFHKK
The experiment in a line: DRUGMATRIX: Progesterone radioligand binding (ligand: [3H] R-5020). Particulars: Not Active = under 50% inhibition at 10 µM. Format: tissue-based, Uterus.

Assay [5] is described as follows: DRUGMATRIX: GABAA, Flunitrazepam, Central radioligand binding (ligand: [3H] Flunitrazepam). It is filed as cell membranes, Rattus norvegicus, Wistar, Brain, Membrane. Particulars: Not Active = under 50% inhibition at 10 µM.

pIC50, pKi: −log10 of the molar value.

On to `CCOC(=O)[C@H](CCc1ccccc1)N[C@@H](C)C(=O)N1[C@H](C(=O)O)C[C@@H]2CCC[C@@H]21`, for which the IC50 entry (against B2 bradykinin receptor; in assay [1]; against Interstitial collagenase; in assay [2]; in assay [3]; in assay [4]) was “Not Active” throughout. Further, the IC50 result (at Progesterone receptor; in assay [5]) was “Not Active” in each case. For the same molecule, the Ki entry in assay [4] and in assay [5] was “Not Active” in each case.

Consider `CC(C)(C)NC(=O)[C@@H]1CN(Cc2cccnc2)CCN1C[C@@H](O)C[C@@H](Cc1ccccc1)C(=O)N[C@H]1c2ccccc2C[C@H]1O.O`, for which the IC50 result (on B2 bradykinin receptor; in assay [1]; at Interstitial collagenase; in assay [2]; in assay [3]; in assay [4]) was “Not Active” throughout. In addition, the IC50 entry (on Progesterone receptor; in assay [5]) was “Not Active” throughout. Also, the Ki result in assay [4] and in assay [5] was “Not Active” throughout.

As to `CC1(C)[C@H]2CC[C@]1(C)C(=O)C2` [(-)-CAMPHOR], the IC50 entry (against B2 bradykinin receptor; in assay [1]; at Interstitial collagenase; in assay [2]; in assay [3]; in assay [4]) was “Not Active” each time. For the same molecule, the IC50 entry (at Progesterone receptor; in assay [5]) was “Not Active” in each case. Moreover, the Ki result in assay [4] and in assay [5] was “Not Active” each time.

Take `CC(C)(C)NCC(O)c1ccc(O)c(CO)c1` (stereo unspecified) [ALBUTEROL]: the IC50 result (on B2 bradykinin receptor; in assay [1]; on Interstitial collagenase; in assay [2]; in assay [3]; in assay [4]) was “Not Active” each time. Moreover, the IC50 entry (on Progesterone receptor; in assay [5]) was “Not Active” throughout. For the same molecule, the Ki result in assay [4] and in assay [5] was “Not Active” throughout.

In general, pIC50 refers to −log10 of the IC50, conventionally taken in molar units. On to `Oc1c(I)cc(I)c2cccnc12` [IODOQUINOL], for which the IC50 result (on B2 bradykinin receptor; against Interstitial collagenase; in assay [2]; in assay [3]; in assay [4]; on Progesterone receptor) was “Not Active” each time. For the same molecule, the IC50 result in assay [5] is “Not Active”. In addition, the pIC50 in assay [1] (read-out: IC50) was 5.61. Further, the Ki entry in assay [4] and in assay [5] was “Not Active” throughout.

Consider `NNC(=O)c1ccncc1` [ISONIAZID], for which the IC50 entry (at B2 bradykinin receptor; in assay [1]; against Interstitial collagenase; in assay [2]; in assay [3]; in assay [4]) was “Not Active” in each case. Further, the IC50 result (on Progesterone receptor; in assay [5]) was “Not Active” in each case. For the same molecule, the Ki result in assay [4] and in assay [5] was “Not Active” throughout.

As to `CC1=C(/C=C/C(C)=C/C=C/C(C)=C\C(=O)O)C(C)(C)CCC1` [ISOTRETINOIN], the IC50 entry (against B2 bradykinin receptor; in assay [1]; on Interstitial collagenase; in assay [2]; in assay [3]; in assay [4]) was “Not Active” in each case. Further, the IC50 result (on Progesterone receptor; in assay [5]) was “Not Active” each time. For the same molecule, the Ki entry in assay [4] and in assay [5] was “Not Active” throughout.

For `CO[C@@H]1[C@@H](O[C@@H]2O[C@H](C)[C@@H](O[C@H]3C[C@@](C)(O)[C@@H](OC(=O)CC(C)C)[C@H](C)O3)[C@H](N(C)C)[C@H]2O)[C@@H](CC=O)C[C@@H](C)[C@@H](O)/C=C/C=C/C[C@@H](C)OC(=O)C[C@H]1O` [KITASAMYCIN], the IC50 entry (against B2 bradykinin receptor; in assay [1]; on Interstitial collagenase; in assay [2]; in assay [3]; in assay [4]) was “Not Active” in each case. The IC50 result (on Progesterone receptor; in assay [5]) was “Not Active” throughout. Besides, the Ki entry in assay [4] and in assay [5] was “Not Active” throughout.

Usually pKi stands for −log10 of the Ki, conventionally taken in molar units. With `CC(CCc1ccccc1)NCC(O)c1ccc(O)c(C(N)=O)c1` (stereo unspecified) [LABETALOL], the IC50 entry (against B2 bradykinin receptor; in assay [1]; against Interstitial collagenase; in assay [2]; in assay [4]; at Progesterone receptor) was “Not Active” each time. The IC50 entry in assay [5] is given as “Not Active”. Moreover, the pIC50 in assay [3] (read-out: IC50) was 6.28. Besides, the pKi in assay [3] (read-out: Ki) was 6.59. In addition, the Ki result in assay [4] and in assay [5] was “Not Active” throughout.

As to `Nc1nnc(-c2cccc(Cl)c2Cl)c(N)n1` [LAMOTRIGINE], the IC50 entry (on B2 bradykinin receptor; in assay [1]; on Interstitial collagenase; in assay [2]; in assay [3]; in assay [4]) was “Not Active” each time. Moreover, the IC50 result (on Progesterone receptor; in assay [5]) was “Not Active” throughout. Moreover, the Ki entry in assay [4] and in assay [5] was “Not Active” throughout.

Values taken from ChEMBL document CHEMBL1909046, “DrugMatrix in vitro pharmacology data”.
